Data reported in patent US12559733B2, “Optimization of type IV BRAF inhibitors for the treatment of melanoma” (UNIVERSITY OF SOUTH CAROLINA, priority 2020, dated 2026).
Where a SMILES comes first, the peptide text is derived from it. Bridges are numbered along the chain shown (N, C = ends). Where no end group is shown, it is not given here. [ ]: non-standard residue; d: D form. The star is where a group is joined. NMeR = CN[C@@H](CCCNC(=N)N)C(=O)O; X1 = CC(C)CCOc1ccc(CCN*)cc1; Orn = NCCC[C@H](N)C(=O)O; Bz = O=C(c1ccccc1)*

Target: T1, B-Raf (Homo sapiens, UniProt P15056)
Test: Dissociation constant (Kd) determination from intrinsic Trp fluorescence (ITF)
Assay type: binding
Settings: not given

T1 sequence (P15056 whole entry): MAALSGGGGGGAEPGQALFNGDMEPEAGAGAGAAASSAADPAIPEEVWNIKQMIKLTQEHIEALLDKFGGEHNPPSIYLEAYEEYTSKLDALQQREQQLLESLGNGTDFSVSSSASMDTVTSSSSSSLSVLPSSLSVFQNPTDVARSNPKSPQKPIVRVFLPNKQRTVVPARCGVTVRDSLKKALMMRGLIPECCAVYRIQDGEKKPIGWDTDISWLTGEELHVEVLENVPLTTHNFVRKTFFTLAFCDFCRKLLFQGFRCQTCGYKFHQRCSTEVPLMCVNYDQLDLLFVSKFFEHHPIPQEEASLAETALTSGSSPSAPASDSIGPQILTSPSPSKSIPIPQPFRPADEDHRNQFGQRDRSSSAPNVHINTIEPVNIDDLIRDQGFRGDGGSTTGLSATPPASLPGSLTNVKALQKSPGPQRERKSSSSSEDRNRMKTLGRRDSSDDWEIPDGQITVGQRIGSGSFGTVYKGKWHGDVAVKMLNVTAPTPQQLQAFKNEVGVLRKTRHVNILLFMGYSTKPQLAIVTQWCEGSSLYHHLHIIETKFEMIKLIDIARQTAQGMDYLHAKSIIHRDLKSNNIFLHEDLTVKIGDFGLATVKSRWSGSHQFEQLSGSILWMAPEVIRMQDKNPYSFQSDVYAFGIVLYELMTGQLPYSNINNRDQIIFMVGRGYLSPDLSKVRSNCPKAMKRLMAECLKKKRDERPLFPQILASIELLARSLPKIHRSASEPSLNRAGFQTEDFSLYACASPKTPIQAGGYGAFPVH

Compound	Kd [nM]
CSCC[C@H](NC(=O)[C@H](Cc1ccccc1)NC(=O)[C@H](CC(C)C)NC(=O)[C@H](CC(C)C)NC(=O)[C@@H]1CCC(=O)NCCCC[C@H](N)C(=O)N[C@@H](CCCNC(=N)N)C(=O)N[C@@H](Cc2c[nH]cn2)C(=O)N2CCC[C@H]2C(=O)N[C@@H](C)C(=O)N1)C(=O)NCC(N)=O [compound 61] (H-KRHPAELLFMG-NH2; lactam 1-6)	160 ± 20
CSCC[C@H](NC(=O)[C@H](Cc1ccccc1)NC(=O)[C@H](CC(C)C)NC(=O)[C@H](CC(C)C)NC(=O)[C@@H]1CCC(=O)NCCCC[C@H](NC(=O)[C@H](CCCCN)NC(=O)[C@H](CCCNC(=N)N)NC(=O)[C@H](CC(C)C)NC(=O)[C@@H](N)C(C)C)C(=O)N[C@@H](CCCNC(=N)N)C(=O)N[C@@H](Cc2c[nH]cn2)C(=O)N[C@@H](C(C)C)C(=O)N[C@@H](CC(N)=O)C(=O)N1)C(=O)NCC(N)=O [compound 53]	1890 ± 330
CSCC[C@H](NC(=O)[C@H](Cc1ccccc1)NC(=O)[C@H](CC(C)C)NC(=O)[C@H](CC(C)C)NC(=O)[C@@H]1CCC(=O)NCCCC[C@H](NC(=O)[C@H](CCCCN)NC(=O)[C@H](CCCNC(=N)N)NC(=O)[C@H](CC(C)C)NC(=O)[C@@H](N)C(C)C)C(=O)N[C@@H](CCCNC(=N)N)C(=O)N[C@@H](Cc2c[nH]cn2)C(=O)N[C@@H](C(C)C)C(=O)N[C@@H](C)C(=O)N1)C(=O)NCC(N)=O [compound 59]	61 ± 10
CC(C)[C@@H]1NC(=O)[C@H](Cc2c[nH]cn2)NC(=O)[C@H](CCCNC(=N)N)NC(=O)[C@@H](N)CCCCNC(=O)CC[C@@H](C(N)=O)NC(=O)[C@H](C)NC1=O [compound 48] (H-KRHVAE-NH2; lactam 1-6)	300 ± 30
CSCC[C@H](NC(=O)[C@H](Cc1ccccc1)NC(=O)[C@H](CC(C)C)NC(=O)[C@H](CC(C)C)NC(=O)[C@@H]1CCC(=O)NCCCC[C@H](NC(=O)[C@H](CCCCN)NC(=O)[C@H](CCCNC(=N)N)NC(=O)[C@H](CC(C)C)NC(=O)[C@@H](N)C(C)C)C(=O)N(C)[C@@H](CCCNC(=N)N)C(=O)N[C@@H](Cc2c[nH]cn2)C(=O)N[C@@H](C(C)C)C(=O)N[C@@H](C)C(=O)N1)C(=O)NCC(N)=O [compound 60]	39 ± 20
CSCC[C@H](NC(=O)[C@H](Cc1ccccc1)NC(=O)[C@H](CC(C)C)NC(=O)[C@H](CC(C)C)NC(=O)[C@@H]1CCC(=O)NCCCC[C@H](N)C(=O)N[C@@H](CCCNC(=N)N)C(=O)N[C@@H](Cc2c[nH]cn2)C(=O)N[C@@H](C(C)C)C(=O)N[C@@H](C)C(=O)N1)C(=O)NCC(N)=O [compound 47] (H-KRHVAELLFMG-NH2; lactam 1-6)	590 ± 20
CC[C@H](C)[C@H](NC(=O)[C@H](CC(C)C)NC(=O)[C@@H]1CCC(=O)NCCC[C@H](NC(=O)[C@H](CCCCN)NC(=O)[C@H](CCCNC(=N)N)NC(=O)[C@H](CC(C)C)NC(=O)[C@@H](N)C(C)C)C(=O)N[C@@H](CCCNC(=N)N)C(=O)N[C@@H](Cc2c[nH]cn2)C(=O)N[C@@H](C(C)C)C(=O)N[C@@H](C)C(=O)N1)C(=O)N[C@@H](Cc1ccccc1)C(=O)N[C@@H](CCSC)C(=O)NCC(N)=O [compound 58] (H-VLRK[Orn]RHVAELIFMG-NH2; lactam 5-10; N-terminus assumed)	170 ± 60
CSCC[C@H](NC(=O)[C@H](Cc1ccccc1)NC(=O)[C@H](CCC(C)C)NC(=O)[C@H](CC(C)C)NC(=O)[C@@H]1CCC(=O)NCCC[C@H](NC(=O)[C@H](CCCCN)NC(=O)[C@H](CCCNC(=N)N)NC(=O)[C@H](CC(C)C)NC(=O)[C@@H](N)C(C)C)C(=O)N[C@@H](CCCNC(=N)N)C(=O)N[C@@H](Cc2c[nH]cn2)C(=O)N[C@@H](C(C)C)C(=O)N[C@@H](C)C(=O)N1)C(=O)NCC(N)=O [compound 57]	430 ± 30

Same assay, conditions: FIG. 1, unit not given

Compound	Kd, binding affinity to the dimer forming interface of B-Raf
GVLRKTRFVNILLFMGYST [SEQ ID NO: 9]	no measurable binding
GVLRKTHHVNILGFWGYST [SEQ ID NO: 2]	no measurable binding
GVLRKTRHVNILLDMGYST [SEQ ID NO:14]	no measurable binding

Same assay, conditions: Table 2, binding affinity with BRAF, cyclized vs linear peptides; read-out: Kd

Kd [nM]	Compound
5750 ± 1200	VLRKTRHVNILLFM [compound 16]

Target: T1, B-Raf
Test: Isothermal Titration Calorimetry (ITC) of B-Raf binding of peptides
Settings: change in enthalpy
Description: Isothermal Titration Calorimetry (ITC) of B-Raf Binding of Peptides
An isothermal titration calorimeter composed of two identical cells surrounded by an adiabatic jacket was used to perform ITC measurements. The thermopile/thermocouple circuits were used to detect temperature differences between a reference cell (filled with buffer or water) and a sample cell containing the macromolecule. During an experiment, ligand is titrated into the sample cell in precisely known aliquots, causing heat to be either taken up or evolved (depending on the nature of the reaction). Measurements consist of the time-dependent input of power required to maintain equal temperatures between the sample and reference cells. In an exothermic reaction, the temperature in the sample cell increases upon addition of ligand. This causes the feedback power to the sample cell to be decreased (remember: a reference power is applied to the reference cell) in order to maintain an equal temperature between the two cells. In an endothermic reaction, the opposite occurs; the feedback circuit increases the power in order to maintain a constant temperature (isothermic/isothermal operation). […] The pattern of these heat effects as a function of the molar ratio [ligand]/[macromolecule] can then be analyzed to give the thermodynamic parameters of the interaction under study.

Compound	ΔH [kcal/mol]
CC[C@H](C)[C@H](NC(=O)[C@H](CC(N)=O)NC(=O)[C@@H](NC(=O)[C@H](Cc1c[nH]cn1)NC(=O)[C@H](CCCNC(=N)N)NC(=O)[C@H](C)NC(=O)[C@H](CCCCN)NC(=O)[C@H](CCCNC(=N)N)NC(=O)[C@H](CC(C)C)NC(=O)[C@@H](NC(=O)CN)C(C)C)C(C)C)C(=O)N[C@@H](CC(C)C)C(=O)N[C@@H](CC(C)C)C(=O)N[C@@H](Cc1ccccc1)C(=O)N[C@@H](CCSC)C(=O)NCC(=O)N[C@@H](Cc1ccc(O)cc1)C(=O)N[C@@H](CO)C(=O)N[C@H](C(=O)O)[C@@H](C)O [SEQ ID NO: 8]	-8.32

Same assay, conditions: change in entropy, text b156

Compound	ΔS [J/mol·K]
CC[C@H](C)[C@H](NC(=O)[C@H](CC(N)=O)NC(=O)[C@@H](NC(=O)[C@H](Cc1c[nH]cn1)NC(=O)[C@H](CCCNC(=N)N)NC(=O)[C@H](C)NC(=O)[C@H](CCCCN)NC(=O)[C@H](CCCNC(=N)N)NC(=O)[C@H](CC(C)C)NC(=O)[C@@H](NC(=O)CN)C(C)C)C(C)C)C(=O)N[C@@H](CC(C)C)C(=O)N[C@@H](CC(C)C)C(=O)N[C@@H](Cc1ccccc1)C(=O)N[C@@H](CCSC)C(=O)NCC(=O)N[C@@H](Cc1ccc(O)cc1)C(=O)N[C@@H](CO)C(=O)N[C@H](C(=O)O)[C@@H](C)O [SEQ ID NO: 8]	−28.4

System: NRASQ61K-mutant SBcl2 melanoma cells
Test: Western blotting of MEK/ERK signalling in melanoma cells treated with peptide and PLX4032
Assay type: cell-based, human
Settings: FIG. 2A, cells electroporated with peptide, 1 μM PLX4032 1 hour or DMSO
Procedure: Following recovery at 37° C. for 30 minutes, the cells were treated with 1 μM PLX4032 for 1 hour or DMSO as a vehicle control. Subsequently, the cells were harvested, lysed using RIPA buffer and analyzed by Western blotting using the indicated antibodies. […] Four hours prior to harvest, the cells were treated with 1 μM vemurafenib (PLX4032), or the same volume of DMSO as vehicle control. RIPA buffer lysates were subjected to Western blotting using the indicated antibodies. Detection of Hsp90 served as a representative loading control.
NRAS^Q61K-mutant SBCl2 melanoma cells were electroporated with the BioRad Gene Pulser XCell™ in the presence of the indicated concentrations of peptide. Following recovery at 37° C. for 30 minutes, cells were treated with 1 μM PLX4032 for 1 hour or DMSO as a vehicle control. Subsequently, the cells were harvested, lysed using RIPA buffer, and analyzed by Western blotting using the indicated antibodies.

Compound	downstream signaling of MEK and ERK (pMEK, pERK)
CC[C@H](C)[C@H](NC(=O)[C@H](CC(N)=O)NC(=O)[C@@H](NC(=O)[C@H](Cc1cnc[nH]1)NC(=O)[C@H](CCCNC(=N)N)NC(=O)[C@@H](NC(=O)[C@H](CCCCN)NC(=O)[C@H](CCCNC(=N)N)NC(=O)[C@H](CC(C)C)NC(=O)[C@@H](NC(=O)CN)C(C)C)[C@@H](C)O)C(C)C)C(=O)N[C@@H](CC(C)C)C(=O)N[C@@H](CC(C)C)C(=O)N[C@@H](Cc1ccccc1)C(=O)N[C@@H](CCSC)C(=O)NCC(=O)N[C@@H](Cc1ccc(O)cc1)C(=O)N[C@@H](CO)C(=O)N[C@H](C(=O)O)[C@@H](C)O [SEQ ID NO: 1]	reduce downstream signaling of MEK and ERK

System: SBcl2 melanoma cell
Test: Melanoma cell growth / colony formation
Assay type: cell-based, human
Settings: SBcl2 melanoma cells

Compound	concentration that impaired cell growth [µM]
GVLAATAAVNALLFAGYST [SEQ ID NO: 68]	7.2

Same assay, conditions: control vs FAM-TAT-SEQ ID NO: 17

Compound	growth-impairing concentration relative to the test sequence [fold]
GVLAATAAVNALLFAGYST [SEQ ID NO: 68]	4

System: not listed separately
Test: Parallel artificial membrane permeability assay (PAMPA)
Assay type: in vitro ADME
Settings: phospholipid and dodecane artificial membrane, mass spectroscopy
Procedure: A parallel artificial membrane permeability assay (PAMPA) was carried out using phospholipid and dodecane as the artificial membrane.

Compound	passive permeability
CC(C)[C@@H]1NC(=O)[C@H](Cc2c[nH]cn2)NC(=O)[C@H](CCCNC(=N)N)NC(=O)[C@@H](N)CCCCNC(=O)CC[C@@H](C(N)=O)NC(=O)[C@H](C)NC1=O [compound 48] (H-KRHVAE-NH2; lactam 1-6)	no detectable trace of passive permeability
CSCC[C@H](NC(=O)[C@H](Cc1ccccc1)NC(=O)[C@H](CC(C)C)NC(=O)[C@H](CC(C)C)NC(=O)[C@@H]1CCC(=O)NCCCC[C@H](NC(=O)[C@H](CCCCN)NC(=O)[C@H](CCCNC(=N)N)NC(=O)[C@@H](N)CC(C)C)C(=O)N[C@@H](CCCNC(=N)N)C(=O)N[C@@H](Cc2c[nH]cn2)C(=O)N[C@@H](C(C)C)C(=O)N[C@@H](C)C(=O)N1)C(=O)NCC(N)=O [compound 38]	no detectable trace of passive permeability
CC(C)CCOc1ccc(CCNC(=O)[C@@H]2CCC(=O)NCCCC[C@H](NC(=O)c3ccccc3)C(=O)N(C)[C@@H](CCCNC(=N)N)C(=O)N[C@H](C)C(=O)N3CCC[C@H]3C(=O)N[C@@H](C)C(=O)N2)cc1 [compound 64] (Bz-K[NMeR][dA]PAE-X1; lactam 1-6)	no detectable trace of passive permeability
CC[C@H](C)[C@H](NC(=O)[C@H](CC(N)=O)NC(=O)[C@@H](NC(=O)[C@H](Cc1cnc[nH]1)NC(=O)[C@H](CCCNC(=N)N)NC(=O)[C@@H](NC(=O)[C@H](CCCCN)NC(=O)[C@H](CCCNC(=N)N)NC(=O)[C@H](CC(C)C)NC(=O)[C@@H](NC(=O)CN)C(C)C)[C@@H](C)O)C(C)C)C(=O)N[C@@H](CC(C)C)C(=O)N[C@@H](CC(C)C)C(=O)N[C@@H](Cc1ccccc1)C(=O)N[C@@H](CCSC)C(=O)NCC(=O)N[C@@H](Cc1ccc(O)cc1)C(=O)N[C@@H](CO)C(=O)N[C@H](C(=O)O)[C@@H](C)O [SEQ ID NO: 1]	no detectable trace of passive permeability

Target: dimer forming interface (Homo sapiens, UniProt P15056)
Test: Kd (μM)
Settings: not given

dimer forming interface, sequence (P15056 2-766 limits assumed): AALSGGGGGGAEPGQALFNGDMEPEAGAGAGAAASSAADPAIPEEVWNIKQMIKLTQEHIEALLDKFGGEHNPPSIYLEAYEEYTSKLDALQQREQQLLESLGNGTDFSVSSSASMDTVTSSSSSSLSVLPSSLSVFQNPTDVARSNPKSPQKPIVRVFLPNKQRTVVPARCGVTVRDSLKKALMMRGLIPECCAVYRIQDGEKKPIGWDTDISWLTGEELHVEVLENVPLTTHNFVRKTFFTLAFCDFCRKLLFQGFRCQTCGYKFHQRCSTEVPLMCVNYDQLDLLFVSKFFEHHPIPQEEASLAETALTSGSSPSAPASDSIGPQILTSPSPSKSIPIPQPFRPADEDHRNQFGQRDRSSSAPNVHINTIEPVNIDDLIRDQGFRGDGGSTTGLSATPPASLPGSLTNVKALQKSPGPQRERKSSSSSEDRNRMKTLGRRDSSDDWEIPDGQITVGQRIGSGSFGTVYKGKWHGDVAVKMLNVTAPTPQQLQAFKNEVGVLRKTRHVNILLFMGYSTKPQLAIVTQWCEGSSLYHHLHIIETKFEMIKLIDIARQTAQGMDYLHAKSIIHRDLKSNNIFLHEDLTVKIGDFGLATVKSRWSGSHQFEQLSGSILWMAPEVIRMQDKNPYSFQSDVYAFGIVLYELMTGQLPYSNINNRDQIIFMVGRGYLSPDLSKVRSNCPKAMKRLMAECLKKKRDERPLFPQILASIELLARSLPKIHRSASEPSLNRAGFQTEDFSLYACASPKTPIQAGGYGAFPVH

Compound	Kd [nM]
VARKTRHVNILLFMG [compound 21]	450 ± 30
VLRKTRHVNILLAMG [compound 29]	570 ± 80
VLRKTAHVNILLFMG [compound 24]	2400 ± 350
VLRKTRHVNIALFMG [compound 28]	1020 ± 140
VLRKTRHVNALLFMG [compound 27]	2690 ± 350
LRKTRHVNILLFMG [SEQ ID NO: 31]	190 ± 130
VLAKTRHVNILLFMG [SEQ ID NO: 22]	360 ± 30
CC[C@H](C)[C@H](NC(=O)[C@H](CC(N)=O)NC(=O)[C@@H](NC(=O)[C@H](Cc1c[nH]cn1)NC(=O)[C@H](CCCNC(=N)N)NC(=O)[C@@H](NC(=O)[C@H](CCCCN)NC(=O)[C@H](CCCNC(=N)N)NC(=O)[C@H](CC(C)C)NC(=O)[C@@H](NC(C)=O)C(C)C)[C@@H](C)O)C(C)C)C(=O)N[C@@H](CC(C)C)C(=O)N[C@@H](CC(C)C)C(=O)N[C@@H](Cc1ccccc1)C(=O)N[C@@H](CCSC)C(=O)NCC(=O)O [compound 19]	800 ± 83
VLRKTRHVNILLFAG [compound 30]	540 ± 150
VLRKTRAVNILLFMG [compound 25]	2700 ± 400
LLKTRHVNILLFMG [compound 32]	550 ± 105
